Assay results: patent publication US8835657B2, “Cyclopentanedione compounds and their use as insecticides, acaricides and/or fungicides” (Bayer CropScience AG, priority 2009, dated 2014)
Read-outs that look alike come from different tables or passages of the source.

Assays:
Assay type in all cases: in vivo
[1] = test system: green peach aphid (Myzus persicae); assay: Myzus persicae test (MYZUPE spray application); settings: foliar, 144 h, spray on Chinese cabbage leaf disks, after 6 days, read-out: Efficacy % (mortality)
Method: Test; (MYZUPE Spray Application)
(§1) • Solvent: 78.0 parts by weight acetone • 1.5 parts by weight dimethylformamide • Emulsifier: 0.5 parts by weight alkylarylpolyglycolether
(§2) To produce a suitable preparation of active compound, 1 part by weight of active compound is mixed with the stated amount of solvent and emulsifier, and the concentrate is diluted with emulsifier-containing water to the desired concentration. Chinese cabbage (Brassica pekinesis) leaf-disks infected with all instars of the green peach aphid (Myzus persicae), are sprayed with a preparation of the active ingredient at the desired concentration.
After 6 days mortality in % is determined. 100% means that all aphids have been killed; 0% means that none of the aphids have been killed.

[2] = test system: two spotted spidermite (Tetranychus urticae); assay: Tetranychus urticae test; OP-resistant (TETRUR spray application); settings: 144 h, read-out: Efficacy % (mortality)
Method: Test; OP-Resistant (TETRUR Spray Application)
as §1
as §2, with “French beans (Phaseolus vulgaris) which are heavily infested” for “Chinese cabbage (Brassica pekinesis) leaf-disks infected”, “stages” for “instars”, “two spotted spidermite (Tetranychus urticae),” for “green peach aphid (Myzus persicae),”
After 6 days mortality in % is determined. 100% means that all spider mites have been killed and 0% means that none of the spider mites have been killed.

[3] = test system: mustard beetle larvae (Phaedon cochleariae); assay: Phaedon cochleariae test (PHAECO spray application); settings: foliar, 168 h, spray on Chinese cabbage leaf disks, after 7 days, read-out: Efficacy % (mortality)
Method: Test; (PHAECO Spray Application)
• Solvent: 78.0 parts by weight of acetone • 1.5 parts by weight of dimethylformamide • Emulsifier: 0.5 parts by weight of alkylaryl polyglycolether
To produce a suitable preparation of active compound, 1 part by weight of active compound is mixed with the stated amount of solvent and emulsifier, and the concentrate is diluted with emulsifier-containing water to the desired concentration. Chinese cabbage (Brassica pekinesis) leaf-disks are sprayed with a preparation of the active ingredient of the desired concentration. Once dry, the leaf disks are infested with mustard beetle larvae (Phaedon cochleariae).
After 7 days mortality in % is determined. 100% means that all beetle larvae have been killed and 0% means that none of the beetle larvae have been killed.

[4] = test system: fall armyworm larvae (Spodoptera frugiperda); assay: Spodoptera frugiperda test (SPODFR spray application); settings: 168 h, spray on maize leaf sections, after 7 days, read-out: Efficacy % (mortality)
Source text: Test (SPODFR Spray Application)
as §1
To produce a suitable preparation of the active compound, 1 part by weight of active compound is mixed with the stated amount of solvent and emulsifier, and the concentrate is dilutes with emulsifier-containing water to the desired concentration. Maize (Zea mais) leaf sections are sprayed with a preparation of the active ingredient of the desired concentration. Once dry, the leaf sections are infested with fall armyworm larvae (Spodoptera frugiperda).
After 7 days mortality in % is determined. 100% means that all caterpillars have been killed and 0% means that none of the caterpillars have been killed.

Meloidogyne incognita = assay: Meloidogyne test (MELGIN); settings: 20 ppm, sand with salad seeds, after 14 days
Method: Meloidogyne Test (MELGIN)
• Solvent: 80.0 parts by weight of acetone
To produce a suitable preparation of active compound, 1 part by weight of active compound is mixed with the stated amount of solvent, and the concentrate is diluted with emulsifier-containing water to the desired concentration.
Vessels are filled with sand, a solution of the active ingredient, a suspension containing eggs and larvae of Meloidogyne incognita and salad seeds. The salade seeds germinate and the seedlings grow. Galls develop in the roots.
After 14 days the nematicidal activity is determined on the basis of the percentage of gall formation. 100% means that no galls were found; 0% means that the number of galls found on the roots of the treated plants was equal to that in untreated control plants.

Question: For `CCOC(=O)OC1=C(c2cc(-c3ccc(Cl)cc3)ccc2C)C(=O)C2C3CCC(O3)C12` (stereo not drawn) [Ex No. P 12], which mortality at 500 g/ha [1] is on record?
Answer: 90%

Question: What about the mortality at 500 g/ha [2] of the same molecule?
Answer: 100%

Question: And the mortality at 500 g/ha ([3]; 500 g/ha)?
Answer: 83%

Question: And the mortality at 500 g/ha [4]?
Answer: 100%

Question: How did the mortality at 500 g/ha [1] turn out when `Cc1ccc(-c2ccc(Cl)cc2)cc1C1=C(O)[C@H]2[C@@H](C1=O)[C@@H]1CC[C@H]2O1` [Ex No. T 1] was run?
Answer: 90%

Question: And the “Efficacy % (nematicidal activity, gall formation)” value (Meloidogyne incognita)?
Answer: 100%

Question: And the mortality at 500 g/ha ([2]; TETRUR, OP-resistant, 500 g/ha, spray on French beans, after 6 days)?
Answer: 100%

Question: And the mortality at 100 g/ha ([3]; 100 g/ha)?
Answer: 83%

Question: What about the mortality at 500 g/ha [4] of the same molecule?
Answer: 100%
